The results in this text go back to patent publication US20140336216A1, “PHYSIOLOGICAL LIGANDS FOR GPR139” (Janssen Pharmaceutica NV, priority 2013, published 2014).

pEC50: −log10 of the molar value. Several values for one entry are separate records, joined by “and”; a condition that tells them apart may be missing. Equal entries are not always repeated.

The target of the first experiment is T1, GPR139 (Homo sapiens, UniProt Q6DWJ6).
T1 sequence (Q6DWJ6 1-353): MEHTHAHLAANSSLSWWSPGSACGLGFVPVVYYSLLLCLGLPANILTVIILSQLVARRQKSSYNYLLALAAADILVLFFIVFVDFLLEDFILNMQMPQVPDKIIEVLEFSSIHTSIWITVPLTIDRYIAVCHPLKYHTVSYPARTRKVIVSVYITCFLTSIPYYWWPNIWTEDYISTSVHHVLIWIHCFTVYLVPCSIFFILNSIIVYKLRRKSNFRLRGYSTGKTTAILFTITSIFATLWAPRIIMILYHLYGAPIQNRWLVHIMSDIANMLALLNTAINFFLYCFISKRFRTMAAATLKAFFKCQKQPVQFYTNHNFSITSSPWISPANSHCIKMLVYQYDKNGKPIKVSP
The experiment can be described thus: Calcium mobilization assay (FLIPR), GPR139 expressed in HEK293 cells. It is filed as cell-based. Also on record: expressed in transfected cells; host or cells: HEK293 (transient). The settings on record: GPR139 expressing HEK293 cells; read-out: EC50 (half maximal effective concentration), calcium mobilization. The method, then:
FIG. 3A and FIG. 3B: Provides the results of experiments conducted to determine whether Trp and its derivatives (FIG. 3A) and Phe and its derivatives (FIG. 3B) stimulate Ca^2+ mobilization in HEK293 cells expressing GPR139.
The active compounds were also tested in a calcium mobilization assay (FLIPR® assay). For these experiments human GPR139 was transiently expressed in HEK293 cells and calcium mobilization was stimulated using L-Trp, L-Phe or their derivatives. […] The concentrations of L-Trp and L-Phe in many cell culture media (for instance DMEM is about 80 μM and 750 μM respectively) are close to the EC50 values of L-Trp and L-Phe for GPR139. […] This may explain why GPR139 appeared constitutively active when recombinantly expressed in mammalian cells.
About 300 additional phenylalanine analogues have been tested for GPR139 activation using a calcium mobilization (FLIPR®) assay. The results of these experiments indicate that many of these analogues can also activate GPR139. Table 4 lists certain phenylalanine analogues that have been determined to activate GPR139 by calcium mobilization at a concentration of 300 μM (calcium mobilization is expressed as percentage of that observed for L-phenylalanine).
With `N[C@@H](Cc1ccccc1)C(=O)O` [Phe, L-phenylalanine], the pEC50 is 3.70 to 4.00.

Take `N[C@@H](Cc1c[nH]c2ccccc12)C(=O)O` [Trp, L-tryptophan]: the pEC50 was 3.70 to 4.00.

The experiment is the same for the next values; noted with them: human GPR139 transiently expressed in HEK293 cells, FIG. 3.
On to `N[C@@H](Cc1ccccc1)C(=O)O` [Phe, L-phenylalanine], for which the “Stimulation of calcium mobilization” value is given as “specifically stimulate calcium mobilization”.

As to `N[C@@H](Cc1c[nH]c2ccccc12)C(=O)O` [Trp, L-tryptophan], the “Stimulation of calcium mobilization” value is “specifically stimulate calcium mobilization”.

Another experiment deals with T1, GPR139. The experiment can be described thus: GTPγS binding dose response study, human GPR139 co-transfected with GO2Q into COS7 cells. It is filed as biochemical. Also on record: expressed in transfected cells; host or cells: COS7 (membranes). The settings on record: human GPR139, FIG. 2A and 2B. The source says:
(§1) FIG. 2-FIG. 2F: Tryptophan, phenylalanine, and their derivatives activate GPR139. Human (FIG. 2A and FIG. 2B) or mouse (FIG. 2C and FIG. 2D) GPR139 were co-transfected with chimeric G-protein GO2Q into COS7 cells. Cell membranes from transfected cells were used in GTPγS binding studies using various ligands at different concentrations to stimulate GPR139. FIG. 2E and FIG. 2F show control experiments in the dose response studies of Example 1.
Background: Binding of GTPγS marks nucleotide exchange on a G protein.
For the molecule `CC(N)Cc1ccccc1` (centres unmarked) [Amphetamine], the “Dose-responsive activation of GPR139 (GTPγS binding)” value (“Dose-responsive activation of GPR139” below) is “specifically activate GPR139 in a dose-responsive manner”.

Take `N[C@@H](Cc1ccccc1)C(=O)O` [Phe, L-phenylalanine]: the “Dose-responsive activation of GPR139” value was “specifically activate GPR139 in a dose-responsive manner”.

For the molecule `N[C@@H](Cc1c[nH]c2ccccc12)C(=O)O` [Trp, L-tryptophan], the “Dose-responsive activation of GPR139” value is “specifically activate GPR139 in a dose-responsive manner”.

Turning to `NCCc1c[nH]c2ccccc12` [Tryptamine], the “Dose-responsive activation of GPR139” value is on record as “specifically activate GPR139 in a dose-responsive manner”.

Turning to `NCCc1ccccc1` [b-phenylethylamine, β-phenylethylamine], the “Dose-responsive activation of GPR139” value is recorded as “specifically activate GPR139 in a dose-responsive manner”.

A further experiment concerns GO2Q alone. Nature of the experiment: GTPγS binding assay, control COS7 membranes expressing GO2Q alone (Ct-GO2Q). It is filed as biochemical. The settings on record: 1 mM final concentration; COS7 membranes expressing GO2Q alone; single wells of triplicate. How it is done:
(§2) In order identify the ligands for GPR139 two improvements in the detection assay were made to allow for the ligands to be detected. First, we chose to use a GTPγS binding assay instead of using live cultured cells. The GTPγS binding assay is a cell free system that uses the cell membrane of the cell(s) of interest rather than the live cell(s). One advantage of this assay is that potential ligands present in the cell culture media are washed away when the cell membrane is prepared. This reduces the basal level of signal and increase the chance of detecting receptor ligands when assessing compounds that activate the receptor. Second, a GO2Q chimeric G-protein was created to be co-expressed with GPR139 in order to increase the signal-to-noise ratio in the GTPγS binding assay. Historically, the Gi, Go coupled GPCRs offer much greater signal-to-noise ratio in GTPγS binding studies. For Gs and Gq coupled GPCRs, although ligand-stimulated specific signals can be detected in a GTPγS binding assay, the signal-to-noise ratios are often very small. To address this a chimeric GO2-Gq chimeric G-protein, GO2Q, with the N-terminus from Go2 protein and the C-terminus from Gq protein.
(§3) To test for compounds that activate GPR139, different amino acids and their derivatives (Table 2) were tested as ligands in the GTPγS binding assay using cell membranes from COS7 cells co-expressing GPR139 and GO2Q. Cell membrane from COS7 cells expressing GO2Q alone or co-expressing other GPCRs were also tested in GTPγS binding assay in parallel as controls. Each compound was tested in triplicate.
As for `CC(N)Cc1ccccc1` (centres unmarked) [Amphetamine], the “Activation levels (GTPγS binding), Ct-GO2Q” value (“Activation levels … Ct-GO2Q” for short) is 2331 and 2132 and 2001.

As to `N[C@@H](Cc1ccccc1)C(=O)O` [Phe, L-phenylalanine], the “Activation levels … Ct-GO2Q” value was 2190 and 2215 and 2345.

For the molecule `N[C@@H](Cc1c[nH]c2ccccc12)C(=O)O` [Trp, L-tryptophan], the “Activation levels … Ct-GO2Q” value is 2172 and 2234 and 2272.

With `NCCc1c[nH]c2ccccc12` [Tryptamine], the “Activation levels … Ct-GO2Q” value is 2025 and 2048 and 2088.

For `NCCc1ccccc1` [b-phenylethylamine, β-phenylethylamine], the “Activation levels … Ct-GO2Q” value is 2334 and 2065 and 2024.

Staying with this experiment, now noted: same assay, 1 mM.
Take `N[C@@H](Cc1ccccc1)C(=O)O` [Phe, L-phenylalanine]: the “Activation of membranes from cells expressing GO2Q alone” value is listed as “did not activate”.

`N[C@@H](Cc1c[nH]c2ccccc12)C(=O)O` [Trp, L-tryptophan]: the “Activation of membranes from cells expressing GO2Q alone” value is “did not activate”.

The target in another experiment is T2, mouse GPR139 (Mus musculus, UniProt Q80UC8).
T2 construct: expressed in transfected cells; host or cells: COS7 (membranes)
T2 sequence (Q80UC8 1-345): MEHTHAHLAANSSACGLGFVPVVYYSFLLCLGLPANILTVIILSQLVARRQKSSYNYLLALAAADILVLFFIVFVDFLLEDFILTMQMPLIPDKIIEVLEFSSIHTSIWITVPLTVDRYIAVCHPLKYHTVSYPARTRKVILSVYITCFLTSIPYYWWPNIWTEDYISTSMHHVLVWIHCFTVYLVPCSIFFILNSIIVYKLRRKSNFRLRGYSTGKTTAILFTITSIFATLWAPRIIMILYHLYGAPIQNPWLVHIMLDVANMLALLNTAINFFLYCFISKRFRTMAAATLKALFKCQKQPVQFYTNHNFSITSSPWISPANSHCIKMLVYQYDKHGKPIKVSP
Nature of the experiment: GTPγS binding dose response study, mouse GPR139 co-transfected with GO2Q into COS7 cells. To be noted: mouse GPR139, FIG. 2C and 2D. It is filed as biochemical.
Description: as §1
As to `CC(N)Cc1ccccc1` (centres unmarked) [Amphetamine], the “Dose-responsive activation of GPR139” value is “specifically activate GPR139 in a dose-responsive manner”.

As for `N[C@@H](Cc1ccccc1)C(=O)O` [Phe, L-phenylalanine], the “Dose-responsive activation of GPR139” value was “specifically activate GPR139 in a dose-responsive manner”.

`N[C@@H](Cc1c[nH]c2ccccc12)C(=O)O` [Trp, L-tryptophan]: the “Dose-responsive activation of GPR139” value is “specifically activate GPR139 in a dose-responsive manner”.

Regarding `NCCc1c[nH]c2ccccc12` [Tryptamine], the “Dose-responsive activation of GPR139” value is “specifically activate GPR139 in a dose-responsive manner”.

With `NCCc1ccccc1` [b-phenylethylamine, β-phenylethylamine], the “Dose-responsive activation of GPR139” value is listed as “specifically activate GPR139 in a dose-responsive manner”.

For the next experiment, the system named is GPR21, GPR52, GPCR119, GPCR132, GPCR134, or GPR182. Nature of the experiment: GTPγS binding assay, control membranes co-expressing GO2Q and other GPCRs (data not shown). It is filed as biochemical.
Settings: not given
How it is done: as §3
`N[C@@H](Cc1ccccc1)C(=O)O` [Phe, L-phenylalanine]: the “Activation of membranes from cells co-expressing GO2Q and other GPCRs” value is listed as “did not activate”.

For `N[C@@H](Cc1c[nH]c2ccccc12)C(=O)O` [Trp, L-tryptophan], the “Activation of membranes from cells co-expressing GO2Q and other GPCRs” value is reported as “did not activate”.

In a further experiment the target is T1, GPR139. The experiment can be described thus: GTPγS binding assay, single-concentration screen, COS7 membranes co-expressing GPR139 and GO2Q. It is filed as biochemical. Further details: expressed in transfected cells; host or cells: COS7 (membranes). To be noted: 1 mM. How it is done:
as §2, §3
Consider `CC(N)Cc1ccccc1` (centres unmarked) [Amphetamine], for which the “Activation of GPR139 in the GTPγS binding assay” value was “activated GPR139”.

On to `N[C@@H](Cc1ccccc1)C(=O)O` [Phe, L-phenylalanine], for which the “Activation of GPR139 in the GTPγS binding assay” value is “able to activate GPR139”.

`N[C@@H](Cc1c[nH]c2ccccc12)C(=O)O` [Trp, L-tryptophan]: the “Activation of GPR139 in the GTPγS binding assay” value is on record as “able to activate GPR139”.

`NCCc1c[nH]c2ccccc12` [Tryptamine]: the “Activation of GPR139 in the GTPγS binding assay” value was “activated GPR139”.

Regarding `NCCc1ccccc1` [b-phenylethylamine, β-phenylethylamine], the “Activation of GPR139 in the GTPγS binding assay” value is “activated GPR139”.

The same experiment, now with this note: 1 mM final concentration; COS7 membranes co-expressing GPR139 and GO2Q; single wells of triplicate.
For the molecule `CC(N)Cc1ccccc1` (centres unmarked) [Amphetamine], the “Activation levels of GPR139 (GTPγS binding), GPR139-GO2Q” value (from here on “Activation levels of GPR139”) was 7242 and 6744 and 7263.

As to `N[C@@H](Cc1ccccc1)C(=O)O` [Phe, L-phenylalanine], the “Activation levels of GPR139” value was 8697 and 6925 and 8417.

On to `N[C@@H](Cc1c[nH]c2ccccc12)C(=O)O` [Trp, L-tryptophan], for which the “Activation levels of GPR139” value is 8141 and 9121 and 9149.

For the molecule `NCCc1c[nH]c2ccccc12` [Tryptamine], the “Activation levels of GPR139” value was 6757 and 7686 and 7742.

For the molecule `NCCc1ccccc1` [b-phenylethylamine, β-phenylethylamine], the “Activation levels of GPR139” value is 6705 and 7099 and 6634.

A further experiment addresses T3, N-terminally V-tagged mouse GPR139 (Mus musculus, UniProt Q80UC8).
T3 construct: V tag (printed 'V-tagged' and 'VS-tagged'); expressed in transfected cells; host or cells: HEK-293 (transient)
T3 sequence (Q80UC8 1-345): T2 sequence (Q80UC8 1-345)
The experiment can be described thus: GPR139 internalization in transiently transfected HEK-293 cells. It is filed as cell-based. To be noted: FIG. 4. The source says:
Many GPCRs are internalize by the cell when they are activated.
On to `N[C@@H](Cc1ccccc1)C(=O)O` [Phe, L-phenylalanine], for which the “Internalization of tagged GPR139 upon stimulation” value is listed as “internalized”.

For the molecule `N[C@@H](Cc1c[nH]c2ccccc12)C(=O)O` [Trp, L-tryptophan], the “Internalization of tagged GPR139 upon stimulation” value is “internalized”.
